Laboratory results: patent US7919525B2, “Radiation protection by gamma-tocotrienol” (priority 2003, dated 2011)

Columns and labels:
Assay type in all cases: in vivo
CD2F1 male mice [1] = assay: 30-day survival of mice given succinate ester orally before Cobalt-60 irradiation; conditions: 9.5 Gy Cobalt-60, 0.6 Gy/min; oral 0.1 ml of 200 unit/ml 20-24 hours before irradiation
Procedure: (§1) After radiation, mice were returned to their original cages with free access to food and water. Mice were weighed and monitored for survivors everyday for 30 days. Percentages of survivors at the end of 30 days are used as a measure of the efficacy of γ-tocotrienol in protecting from radiation damage.
0.5 g TS (Sigma, 1210 units/g) was sonicated with 2.85 ml PEG-400 (polyethylene glycol-400) and 0.15 ml of vital-E-placebo, a solubilizing agent (Schering-Plough). The final concentration of TS in the prepared solution is 200 units/ml. At a dose of 800 unit/kg, 1 ml of the prepared solution as described above is sufficient for 8 mice. Vehicle for injection into control mice was prepared exactly as for TS except that 0.5 ml of olive oil was used instead of TS.
Each animal was orally administered 0.1 ml of TS solution (200 unit/ml) or vehicle by using feeding needles with a blobbed head. All administrations were done 20-24 hours before irradiation.
Animals were then placed in well-ventilated Lucite boxes (eight animals in a compartmentalized box) and irradiated in a Cobalt-60 facility at a radiation dose rate of 0.6 Gy/min for total radiation doses of 9, 9.5, and 10 Gy. The radiation doses 9.5 and 10 Gy used are lethal doses. […]
The efficacy of α-tocopherol succinate in protecting from radiation damage is monitored as described in Example 4. […]

CD2F1 male mice [2] = assay: 30-day survival of mice injected s.c. before lethal Cobalt-60 irradiation; conditions: for protective efficacy at higher radiation dose (in words): 11 Gy; for survival at 30 days after irradiation: s.c. injection 20-24 hours before irradiation
Procedure: CD2F1 male mice, 6-8 weeks old (approximately 25 g), procured from Jackson Labs were used throughout this study and were kept in rooms maintained at 21±0.5° C. Animals on arrival were maintained in quarantine for 10 days during which time serological testing was done for contamination by pathogens. All animals were provided with pellet diet and water ad lib.
A preparation of γ-tocotrienol in a final volume of 1 ml was made by mixing 0.11 ml of γ-tocotrienol with 0.85 ml PEG-400 (polyethylene glycol-400) and 0.05 ml of vital-E-placebo, a solubilizing agent (Schering-Plough). 1 ml of the preparation is sufficient for 8 mice. Final concentration of γ-tocotrienol is 100 mg/ml. Vehicle for injection into control animals was prepared exactly as for γ-tocotrienol except that 0.11 ml of olive oil was used instead of γ-tocotrienol.
(§2) Each animal was injected subcutaneously (at the nape of the neck) with 0.1 ml of either γ-tocotrienol or vehicle preparation. Injections were done 20-24 hours before irradiation.
(§3) Animals were placed in well-ventilated Lucite boxes (8 animals in a compartmentalized box) and irradiated in a Cobalt-60 facility at a radiation dose rate of 0.6 Gy/min for a total radiation dose of 10.5 and 11 Gy. The radiation dose used is a super lethal dose. The LD50/30 radiation dose for this strain of mice is 8.9 Gy with the vehicle alone. The radiation dose and dose rate were the same that had been used for α-tocopherol studies.
as §1

CD2F1 male mice [3] = assay: Body weight of mice after irradiation at 10.5 Gy; conditions: 0.6 Gy per minute, s.c.
Procedure: as §2, §3, §1
Among the different treatment groups, the untreated mice (Untr, Irrad) and the mice treated with vehicle (Vehicle) started to loose weight again from around day 9 and died by day 15.

[4] = experiment 1, 10.5 Gy Cobalt-60, 0.6 Gy/min, 8 mice
[5] = experiment 2, 10.5 Gy Cobalt-60, 0.6 Gy/min, 8 mice

Cc1c(C)c2c(c(C)c1OC(=O)CCC(=O)O)CC[C@@](C)(CCC[C@H](C)CCC[C@H](C)CCCC(C)C)O2 [α-tocopherol succinate]
survival at 30 days after irradiation (CD2F1 male mice [1]): 60%

Cc1c(C)c2c(c(C)c1O)CC[C@@](C)(CCC[C@H](C)CCC[C@H](C)CCCC(C)C)O2 [α-tocopherol, reference compound]
protection less than that of γ-tocotrienol (CD2F1 male mice [2]; 10.5 Gy): 25% | protective efficacy at higher radiation dose (in words) (CD2F1 male mice [2]): not effective | survival at 30 days after irradiation (CD2F1 male mice [2]; 11 Gy Cobalt-60, 0.6 Gy/min): no survivors | survival at 30 days after irradiation (CD2F1 male mice [2]; [4]): 75% | survival at 30 days after irradiation (CD2F1 male mice [2]; [5]): 50%

γ-tocotrienol
protection higher than with α-tocopherol (CD2F1 male mice [2]; 10.5 Gy, both experiments): 25% | survival after irradiation, both experiments together (CD2F1 male mice [2]; 10.5 Gy, given before irradiation): 75%-100 | protective efficacy at higher radiation dose (in words) (CD2F1 male mice [2]): better radioprotectant than α-tocopherol | survival at 30 days after irradiation (CD2F1 male mice [2]; 11 Gy Cobalt-60, 0.6 Gy/min): 40% | survival at 30 days after irradiation (CD2F1 male mice [2]; [4]): 100% | survival at 30 days after irradiation (CD2F1 male mice [2]; [5]): 75% | body weight course after irradiation (in words) (CD2F1 male mice [3]): continued to gain weight and did not die from the irradiation
